Measurements as given in US20250123297A1, “Supermere Nanoparticles and Methods of Isolation and Use Thereof” (Vanderbilt University, priority 2021, published 2025).

Legend:
Hela cells = experiment: Inhibition of cellular supermere uptake by uptake inhibitors; type: cell-based; conditions: 30 min pre-incubation with inhibitor, labeled supermeres 24 h, 100 nM bafilomycin A
Procedure: (§1) For inhibitor treatment before supermere uptake, MDA-MB-231 cells were seeded at 20,000 cells per well or Hela cells at 25,000 cells per well on a 35-mm dish (P35G-0.170-14-C, MatTek Corporation) in DMEM culture media. Twenty-four hours later, cells were pre-incubated with the inhibitors in serum free DMEM media for 30 min. The following inhibitors were used: 100 nM bafilomycin A (Sigma, SML1661-. 1ML), 20 μM dynasore (Sigma, D7693-5 MG), 25 μM CK666 (Sigma, SML0006), 5 μM cytochalasin D (Sigma, C2618-200 ul). The Alexa Fluor 647-labeled supermeres (40 μg/ml) were added to the cells for 24 h in the presence of indicated inhibitors. […] Brightfield (30 ms exposure time) and fluorescence (640 Far Red, 10% laser power, 100 ms exposure time) images were taken of 10 or more fields of view, each with several cells per field. Three z-slices 1 μm apart were taken of each fluorescent field and the brightest slice was analyzed.
(§2) Brightfield images were used to identify cell boundaries and an ROI was drawn manually around each cell in each field of view. These region of interests (ROIs) were then opened on the fluorescent image and the mean fluorescence intensity of each ROI (cell) was measured. For each field of view, a background ROI was drawn in a region with no cells, and this background value was subtracted from each cell fluorescence mean in the field of view. […]

MDA-MB-231 cells = experiment: as above; type: cell-based, human; conditions: 30 min pre-incubation with inhibitor, labeled supermeres 24 h, 100 nM bafilomycin A
Procedure: as §1, §2

CO/C1=C\C(C)=C\[C@@H](C)[C@@H](O)[C@@H](C)C/C(C)=C/C=C/[C@H](OC)[C@@H]([C@@H](C)[C@@H](O)[C@H](C)[C@@]2(O)C[C@@H](O)[C@H](C)[C@@H](C(C)C)O2)OC1=O [bafilomycin A]
inhibition of supermere internalization (Hela cells): greatest inhibition of supermere internalization
inhibition of supermere internalization (MDA-MB-231 cells): greatest inhibition of supermere internalization
